Results taken from patent US20040077591A1, “Histone deacetylase inhibitors for the treatment of multiple sclerosis, amyotrophic lateral sclerosis and Alzheimer's Disease” (The Brigham and Women's Hospital, Inc., priority 2002, published 2004).

Key:
[1] = system: EAE mice spleens; experiment: DNA microarray analysis of EAE mice spleens; format: in vivo
Excerpt: (§1) (2) Modulation of genes involved in neuroprotection and immune regulation by TSA. a) Microarrays detect protective genes regulated by TSA in EAE mice spinal cords. The inventor pooled RNA from tissues of three animals in each group (TSA treated and vehicle-treated) for DNA microarray analysis. As shown (Table 3), intraperitoneal TSA led to the enhanced expression of mRNAs for the antioxidant glutathione peroxidase (Gpx1) and the neuroprotective insulin-like growth factor 2 (Igf2). […] Intraperitoneal TSA also led to decreased expression in EAE spinal cords of the chemokine receptor CCR6, immunoglobulin V(H)II, the vascular homeostasis-related phospholipase A2, and upregulation of the immunomodulatory factor interferon-α2 (Ifna2), the latter with known beneficial effects in MS patients.
b) Microarrays detect protective genes regulated by TSA in EAE mice spleens. The inventor had previously shown that HDAC mRNAs are elevated in immune cells after stimulation with mitogens or α-CD3 Ab (Dangond et al., 1998) and that HDAC inhibitors block proliferation (Dangond and Gullans, 1998). HDAC inhibition also downregulates pro-inflammatory molecules, including γ-IFN (Dangond and Gullans, 1998), IL-12 (Saemann et al., 2000), IL-12 receptor (Saemann et al., 2000), B7-1 (Bohmig et al., 1997) and TNF-α (Nancey et al., 2002). […] A known histone deacetylase-binding chaperone, 14-3-3 sigma, is also elevated in spleens.
(§2) Microarrays detect protective genes co-regulated by TSA in EAE mice spinal cords and spleens.

[2] = system: caspases 3 and 9; experiment: Western analysis of caspases in CNS tissue of EAE mice; format: in vivo
Excerpt: FIGS. 7A-B—Densitometry of bands from western analysis of brain tissue proteins isolated from HDAC inhibitor-treated and vehicle-treated mice. […] Activated caspase 9 is decreased by oral sodium phenylbutyrate (SPB) and by intraperitoneal TSA. Both findings correlate with clinical improvement in these animal models.
Mechanisms of protection by HDAC inhibitors. (1) Decreased caspase activation leading to enhanced neuronal survival. […] Caspase 3 is known to be activated in rat EAE spinal cords (Ahmed et al., 2002), and correlates with retinal ganglion cell loss and optic neuritis-related disability (Meyer et al., 2001). Neuronal overexpression of the anti-caspase factor Bcl-2 ameliorates EAE (Offen et al., 2000). Caspase 3 also has the ability to modulate Bcl2 and activate upstream caspases triggered by Fas (Woo et al., 1999), an apoptotic pathway implicated in EAE (Sabelko et al., 1997). Finally, CNS activation of caspases has been implicated in the progression of Alzheimer's disease (AD) (Pompl et al., 2003). Thus, the inventor proposes that blockade of neuronal caspase activation is a mechanism by which HDAC inhibitors ameliorate neuronal death in these disorders (EAE, ALS and AD).

[3] = system: EAE mice spinal cords; experiment: DNA microarray analysis of EAE mice spinal cords; format: in vivo
Excerpt: as §1, §2

[4] = system: ras transformed cells; details: cited from earlier work

## CC(/C=C/C(=O)NO)=C\[C@@H](C)C(=O)c1ccc(N(C)C)cc1 [TSA, Trichostatin A]
[1]; Table 5, probe set AB010557, i.p. TSA, EAE mice spleen
  Fold Δ Spleen, Paired box gene 4 (Pax4): −2.4 fold
[1]; Table 5, probe set AF009011, i.p. TSA, EAE mice spleen
  Fold Δ Spleen, Axin: 2.1 fold
[1]; Table 5, probe set AF036008, i.p. TSA, EAE mice spleen
  Fold Δ Spleen, DNA methyltransferase (Dnmt1): −3.2 fold
[1]; Table 5, probe set AV108173, i.p. TSA, EAE mice spleen
  Fold Δ Spleen, Metaxin homolog: −4 fold
[1]; Table 5, probe set D10849, i.p. TSA, EAE mice spleen
  Fold Δ Spleen, Thromboxane A2 receptor (Tbxa2r): −4.9 fold
[1]; Table 5, probe set L06444, i.p. TSA, EAE mice spleen
  Fold Δ Spleen, Growth differentiation factor (Gdf9): 5.4 fold
[1]; Table 5, probe set M35131, i.p. TSA, EAE mice spleen
  Fold Δ Spleen, Neurofilament heavy (Nefh): 2.2 fold
[1]; Table 5, probe set M95604, i.p. TSA, EAE mice spleen
  Fold Δ Spleen, Snail homolog 1 (Snail1): 2.9 fold
[1]; Table 5, probe set U24160, i.p. TSA, EAE mice spleen
  Fold Δ Spleen, Dishevelled 2 (Dvl2): −3.6 fold
[1]; Table 5, probe set U58974, i.p. TSA, EAE mice spleen
  Fold Δ Spleen, Rearranged in lymphoma (Frat1): 5.4 fold
[1]; Table 5, probe set U62386, i.p. TSA, EAE mice spleen
  Fold Δ Spleen, Immunoglobulin H and L variable: −2.5 fold
[1]; Table 5, probe set U70017, i.p. TSA, EAE mice spleen
  Fold Δ Spleen, Cyclin D-interacting Dmp1 (Dmtf1): 5.2 fold
[1]; Table 5, probe set U77967, i.p. TSA, EAE mice spleen
  Fold Δ Spleen, Neuronal PAS domain 1 (Npas1): −3.5 fold
[1]; Table 5, probe set U85714, i.p. TSA, EAE mice spleen
  Fold Δ Spleen, Phospholipase C-beta-1b (Picb1): 3.7 fold
[1]; Table 5, probe set X03920, i.p. TSA, EAE mice spleen
  Fold Δ Spleen, Glutathione peroxidase (Gpx1): 2.3 fold
[1]; Table 5, probe set X16678, i.p. TSA, EAE mice spleen
  Fold Δ Spleen, Immunoglobulin kappa chain (1gk-V20): −2.3 fold
[1]; Table 5, probe set X55781, i.p. TSA, EAE mice spleen
  Fold Δ Spleen, Paired box gene 2 (Pax2): 2.1 fold
[1]; Table 5, probe set Y07609, i.p. TSA, EAE mice spleen
  Fold Δ Spleen, Max binding protein ROX (Mnt): −3.5 fold
[1]; probe set 96704, spleen, I.P. TSA vs vehicle-treated EAE mice
  Fold Change, 14-3-3 sigma: 3.9 fold
[1]; probe set 96719, spleen, I.P. TSA vs vehicle-treated EAE mice
  Fold Change, Parvalbumin (Pva): 6.3 fold
[1]; probe set 96970, spleen, I.P. TSA vs vehicle-treated EAE mice
  Fold Change, IgH variable: −3.9 fold
[1]; probe set 97570, spleen, I.P. TSA vs vehicle-treated EAE mice
  Fold Change, Igκ-V22: −4.4 fold
[1]; probe set 99420, spleen, I.P. TSA vs vehicle-treated EAE mice
  Fold Change, IgA VDJH: −2.8 fold
[1]; probe set 99671, spleen, I.P. TSA vs vehicle-treated EAE mice
  Fold Change, Adipsin (Adn): 9.0 fold
[1]; probe set 99837, spleen, I.P. TSA vs vehicle-treated EAE mice
  Fold Change, Galanin receptor 1 (Galr1): −4.2 fold
[1]; probe set 99850, spleen, I.P. TSA vs vehicle-treated EAE mice
  Fold Change, IgE H constant: −3.1 fold
[1]; probe set 100060, spleen, I.P. TSA vs vehicle-treated EAE mice
  Fold Change, Kallikrein (Klk): 2.8 fold
[1]; probe set 101115, spleen, I.P. TSA vs vehicle-treated EAE mice
  Fold Change, Lactotransferrin (Ltf): −8.2 fold
[1]; probe set 101616, spleen, I.P. TSA vs vehicle-treated EAE mice
  Fold Change, IgG rearranged κ: −4.5 fold
[1]; probe set 101752, spleen, I.P. TSA vs vehicle-treated EAE mice
  Fold Change, IgG variable: −8.2 fold
[1]; probe set 101826, spleen, I.P. TSA vs vehicle-treated EAE mice
  Fold Change, V kappa and J kappa coding joint: −4.2 fold
[1]; probe set 101870, spleen, I.P. TSA vs vehicle-treated EAE mice
  Fold Change, γ-1 Ig Constant: −5.0 fold
[1]; probe set 102149, spleen, I.P. TSA vs vehicle-treated EAE mice
  Fold Change, Interferon alpha 7 (Ifna7): 5.8 fold
[1]; probe set 102843, spleen, I.P. TSA vs vehicle-treated EAE mice
  Fold Change, IgH gene DJC: −3.6 fold
[1]; probe set 103830, spleen, I.P. TSA vs vehicle-treated EAE mice
  Fold Change, Snail homolog: 3.0 fold
[2]; intraperitoneal TSA vs vehicle-treated mice
  Activated caspase 9, densitometry of western bands, brain tissue: decreased
[2]; intraperitoneal TSA, MS (EAE) mice, western analysis
  activation of caspases 3 and 9 in CNS tissue: decreased activation of caspases 3 and 9
[3]; Table 5, probe set AB010557, i.p. TSA, EAE mice spinal cord
  Fold Δ CNS, Paired box gene 4 (Pax4): −12.5 fold
[3]; Table 5, probe set AF009011, i.p. TSA, EAE mice spinal cord
  Fold Δ CNS, Axin: 4.9 fold
[3]; Table 5, probe set AF036008, i.p. TSA, EAE mice spinal cord
  Fold Δ CNS, DNA methyltransferase (Dnmt1): −8.8 fold
[3]; Table 5, probe set AV108173, i.p. TSA, EAE mice spinal cord
  Fold Δ CNS, Metaxin homolog: −11.6 fold
[3]; Table 5, probe set D10849, i.p. TSA, EAE mice spinal cord
  Fold Δ CNS, Thromboxane A2 receptor (Tbxa2r): −5.2 fold
[3]; Table 5, probe set L06444, i.p. TSA, EAE mice spinal cord
  Fold Δ CNS, Growth differentiation factor (Gdf9): 3.5 fold
[3]; Table 5, probe set M35131, i.p. TSA, EAE mice spinal cord
  Fold Δ CNS, Neurofilament heavy (Nefh): 2.3 fold
[3]; Table 5, probe set M95604, i.p. TSA, EAE mice spinal cord
  Fold Δ CNS, Snail homolog 1 (Snail1): 5.3 fold
[3]; Table 5, probe set U24160, i.p. TSA, EAE mice spinal cord
  Fold Δ CNS, Dishevelled 2 (Dvl2): −2.1 fold
[3]; Table 5, probe set U58974, i.p. TSA, EAE mice spinal cord
  Fold Δ CNS, Rearranged in lymphoma (Frat1): 4.5 fold
[3]; Table 5, probe set U62386, i.p. TSA, EAE mice spinal cord
  Fold Δ CNS, Immunoglobulin H and L variable: −2.1 fold
[3]; Table 5, probe set U70017, i.p. TSA, EAE mice spinal cord
  Fold Δ CNS, Cyclin D-interacting Dmp1 (Dmtf1): 5.4 fold
[3]; Table 5, probe set U77967, i.p. TSA, EAE mice spinal cord
  Fold Δ CNS, Neuronal PAS domain 1 (Npas1): 2 fold
[3]; Table 5, probe set U85714, i.p. TSA, EAE mice spinal cord
  Fold Δ CNS, Phospholipase C-beta-1b (Picb1): 3.4 fold
[3]; Table 5, probe set X03920, i.p. TSA, EAE mice spinal cord
  Fold Δ CNS, Glutathione peroxidase (Gpx1): 3 fold
[3]; Table 5, probe set X16678, i.p. TSA, EAE mice spinal cord
  Fold Δ CNS, Immunoglobulin kappa chain (1gk-V20): −3.3 fold
[3]; Table 5, probe set X55781, i.p. TSA, EAE mice spinal cord
  Fold Δ CNS, Paired box gene 2 (Pax2): 7.1 fold
[3]; Table 5, probe set Y07609, i.p. TSA, EAE mice spinal cord
  Fold Δ CNS, Max binding protein ROX (Mnt): −2.2 fold
[3]; probe set 92500, spinal cord, I.P. TSA vs vehicle-treated EAE mice
  Fold Change, Ten-m3: −5.4 fold
[3]; probe set 92782, spinal cord, I.P. TSA vs vehicle-treated EAE mice
  Fold Change, Thymopoietin (Tmpo): −6.4 fold
[3]; probe set 92833, spinal cord, I.P. TSA vs vehicle-treated EAE mice
  Fold Change, Histidine ammonia lyase (Ha): 5.3 fold
[3]; probe set 93275, spinal cord, I.P. TSA vs vehicle-treated EAE mice
  Fold Change, SH3 domain protein 2B: 4.5 fold
[3]; probe set 93378, spinal cord, I.P. TSA vs vehicle-treated EAE mice
  Fold Change, Hox-3.1: −5.3 fold
[3]; probe set 94521, spinal cord, I.P. TSA vs vehicle-treated EAE mice
  Fold Change, Cdk inhibitor p19: −5.3 fold
[3]; probe set 94717, spinal cord, I.P. TSA vs vehicle-treated EAE mice
  Fold Change, IFN-alpha-2 (1fna2): 5.6 fold
[3]; probe set 97540, spinal cord, I.P. TSA vs vehicle-treated EAE mice
  Fold Change, Histocompatibility 2 D region locus 1: 7.4 fold
[3]; probe set 97680, spinal cord, I.P. TSA vs vehicle-treated EAE mice
  Fold Change, Murinoglobulin (Mug): −7.2 fold
[3]; probe set 97970, spinal cord, I.P. TSA vs vehicle-treated EAE mice
  Fold Change, Transferrin-like p97: −5.7 fold
[3]; probe set 98623, spinal cord, I.P. TSA vs vehicle-treated EAE mice
  Fold Change, Insulin-like growth factor 2 (1gf2): 5.2 fold
[3]; probe set 99326, spinal cord, I.P. TSA vs vehicle-treated EAE mice
  Fold Change, Phospholipase A2 (Pla2): −6.4 fold
[3]; probe set 99899, spinal cord, I.P. TSA vs vehicle-treated EAE mice
  Fold Change, CCR6: −7.3 fold
[3]; probe set 100362, spinal cord, I.P. TSA vs vehicle-treated EAE mice
  Fold Change, Ig V(H)II: −4.9 fold
[3]; probe set 101676, spinal cord, I.P. TSA vs vehicle-treated EAE mice
  Fold Change, Glutathione peroxidase (Gpx1): 6.9 fold
[3]; probe set 104364, spinal cord, I.P. TSA vs vehicle-treated EAE mice
  Fold Change, Mapkapk5: −6.5 fold
[4]
  hyperacetylation: induce hyperacetylation
  morphology of ras transformed cells: reversion of ras transformed cells to normal morphology
